The values below come from patent EP4722212A1, “NOVEL COMPOUND FOR INHIBITING PROTEIN KINASES AND PHARMACEUTICAL COMPOSITION COMPRISING SAME” (Magicbullettherapeutics Co., Ltd., priority 2023, dated 2024).

In one assay the target is CDK8/cyclin C (Homo sapiens, UniProt P49336). In words: Kinase panel. The class given is biochemical. The following applies: read-out: residual enzyme activity. Put shortly:
(§1)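 Residual enzyme activity is given for kinases screened biochemically with compound at a fixed 1 µM. Kinases showing ≤40% residual activity (≥60% inhibition) were identified as inhibited.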

The target in another assay is DLK/MAP3K12 (Homo sapiens, UniProt Q12852). Nature of the assay: Kinase panel. It counts as biochemical. The settings on record: DLK/MAP3K12, 1 µM; read-out: residual enzyme activity. Put shortly:
as §1

For another assay, the target named is CDK4/CYCLIN D2 (Homo sapiens, UniProt P11802). Nature of the assay: Kinase panel. The class given is biochemical. The following applies: CDK4/CYCLIN D2, 1 µM; read-out: residual enzyme activity. Put shortly:
as §1

The subject of another assay is 22Rv1. In words: Cell line inhibition analysis (CCK-8, 72 h). The class given is cell-based. The settings on record: Homo sapiens; 22Rv1, 72 hours; read-out: Cell growth inhibition GI50 22Rv1. Put shortly: (§2)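 Cells attached one day, then treated 72 h at 37 °C with nine 3-fold compound dilutions (final 0-50 µM) or DMSO. Growth read by CCK-8 absorbance at 450 nm after 2 h, medium-blank corrected, with a day-0 plate defining 0% growth; GI50 calculated.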

A further assay deals with C4-2B. Nature of the assay: Cell line inhibition analysis (CCK-8, 72 h). It counts as cell-based. The settings on record: read-out: Cell growth inhibition GI50 C4-2B. Summed up: as §2

DLK/MAP3K12, sequence (Q12852 whole entry): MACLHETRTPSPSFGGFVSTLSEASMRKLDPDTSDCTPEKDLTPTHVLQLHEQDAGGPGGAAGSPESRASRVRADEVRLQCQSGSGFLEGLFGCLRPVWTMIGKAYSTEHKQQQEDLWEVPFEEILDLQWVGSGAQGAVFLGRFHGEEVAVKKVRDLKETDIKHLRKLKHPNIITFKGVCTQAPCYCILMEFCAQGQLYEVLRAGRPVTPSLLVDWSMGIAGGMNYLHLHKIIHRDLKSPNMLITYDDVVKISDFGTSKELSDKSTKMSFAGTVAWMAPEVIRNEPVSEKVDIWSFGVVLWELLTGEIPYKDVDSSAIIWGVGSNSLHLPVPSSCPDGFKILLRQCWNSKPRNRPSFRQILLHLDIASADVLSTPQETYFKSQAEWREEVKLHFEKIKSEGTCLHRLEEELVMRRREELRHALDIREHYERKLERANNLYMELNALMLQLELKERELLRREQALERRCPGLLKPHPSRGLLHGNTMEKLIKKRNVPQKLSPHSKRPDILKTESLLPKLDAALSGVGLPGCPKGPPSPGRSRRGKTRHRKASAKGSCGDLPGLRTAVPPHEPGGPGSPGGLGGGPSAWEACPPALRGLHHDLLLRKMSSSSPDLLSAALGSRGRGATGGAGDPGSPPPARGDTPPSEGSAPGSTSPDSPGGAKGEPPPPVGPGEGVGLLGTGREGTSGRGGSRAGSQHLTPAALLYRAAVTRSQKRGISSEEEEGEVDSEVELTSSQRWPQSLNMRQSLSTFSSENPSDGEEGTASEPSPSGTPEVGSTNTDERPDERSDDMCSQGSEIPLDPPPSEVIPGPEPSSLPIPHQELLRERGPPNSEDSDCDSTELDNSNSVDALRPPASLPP
CDK8/cyclin C, sequence (P49336 whole entry, species assumed): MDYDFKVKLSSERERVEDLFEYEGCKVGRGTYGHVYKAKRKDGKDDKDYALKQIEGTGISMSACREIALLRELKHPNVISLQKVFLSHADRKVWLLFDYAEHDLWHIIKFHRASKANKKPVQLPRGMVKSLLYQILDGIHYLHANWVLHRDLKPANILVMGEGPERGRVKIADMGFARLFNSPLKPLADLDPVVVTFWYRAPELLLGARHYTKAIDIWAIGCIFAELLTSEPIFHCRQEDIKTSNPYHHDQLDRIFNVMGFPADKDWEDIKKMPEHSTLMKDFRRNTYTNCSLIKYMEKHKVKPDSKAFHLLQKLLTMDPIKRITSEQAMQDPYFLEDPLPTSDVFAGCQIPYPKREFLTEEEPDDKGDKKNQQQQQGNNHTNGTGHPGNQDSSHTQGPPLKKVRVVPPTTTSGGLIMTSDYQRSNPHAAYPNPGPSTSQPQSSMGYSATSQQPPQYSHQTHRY
CDK8/cyclin C, sequence (P24863 whole entry partner, species assumed): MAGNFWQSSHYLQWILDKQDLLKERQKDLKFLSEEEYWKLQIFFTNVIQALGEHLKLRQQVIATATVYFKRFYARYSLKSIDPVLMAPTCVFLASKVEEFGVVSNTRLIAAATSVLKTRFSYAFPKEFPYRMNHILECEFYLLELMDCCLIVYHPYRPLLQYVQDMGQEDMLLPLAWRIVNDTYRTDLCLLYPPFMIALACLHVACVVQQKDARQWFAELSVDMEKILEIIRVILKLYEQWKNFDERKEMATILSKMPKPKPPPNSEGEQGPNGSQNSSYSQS
CDK4/CYCLIN D2, sequence (P11802 whole entry, species assumed): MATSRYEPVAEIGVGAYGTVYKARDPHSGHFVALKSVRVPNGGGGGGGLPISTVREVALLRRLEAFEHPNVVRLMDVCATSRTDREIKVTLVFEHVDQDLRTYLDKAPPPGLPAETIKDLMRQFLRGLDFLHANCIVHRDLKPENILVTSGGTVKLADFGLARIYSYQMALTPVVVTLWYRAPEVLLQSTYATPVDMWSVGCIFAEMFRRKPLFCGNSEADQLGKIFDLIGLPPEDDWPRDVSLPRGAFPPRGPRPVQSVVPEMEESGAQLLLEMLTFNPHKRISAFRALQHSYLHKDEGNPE
CDK4/CYCLIN D2, sequence (P30279 whole entry partner, species assumed): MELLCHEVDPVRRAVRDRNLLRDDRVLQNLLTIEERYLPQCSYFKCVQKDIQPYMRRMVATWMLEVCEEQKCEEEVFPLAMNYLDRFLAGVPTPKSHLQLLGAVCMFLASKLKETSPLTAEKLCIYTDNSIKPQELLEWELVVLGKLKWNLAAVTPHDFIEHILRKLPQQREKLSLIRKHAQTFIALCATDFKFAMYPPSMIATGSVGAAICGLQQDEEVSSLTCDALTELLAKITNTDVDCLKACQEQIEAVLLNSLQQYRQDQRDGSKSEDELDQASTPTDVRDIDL

On to `Cc1ccc(Nc2ncc3c(n2)C2(CC2)C(=O)N(c2cc(NC(=O)c4cccc(C(F)(F)F)c4)ccc2C)C3)cn1` [Compound 51, N-(4-methyl-3-(2'-((6-methylpyridin-3-yl)amino)-7'-oxo-5'H-spiro[cyclopropane-1,8'-pyrido[4,3-d]pyrimidine]-6'(7'H)-yl)phenyl)-3-(trifluoromethyl)benzamide], for which the remaining activity at 1 µM at CDK8/cyclin C and on DLK/MAP3K12 was more than 40% each time.
For `Cc1cn(-c2cc(C(=O)Nc3ccc(C)c(N4Cc5cnc(NC6CC6)nc5C5(CC5)C4=O)c3)cc(C(F)(F)F)c2)cn1` [Compound 8, N-(3-(2'-(cyclopropylamino)-7'-oxo-5'H-spiro[cyclopropane-1,8'-pyrido[4,3-d]pyrimidine]-6'(7'H)-yl)-4-methylphenyl)-3-(4-methyl-1H-imidazol-1-yl)-5-(trifluoromethyl)benzamide], the remaining activity at 1 µM on CDK4/CYCLIN D2 was more than 40%. The GI50 in the assay with 22Rv1 and in the assay with C4-2B was less than 1000 nM throughout.
